For one experiment, the target named is T1, GLP-1R (Homo sapiens, UniProt P43220).
T1 construct: expressed in transfected cells
Description: GLP-1 receptor-mediated cAMP production in vitro. It is filed as cell-based. The following applies: HEK293 cell line stably expressing GLP-1R. How it is done:
(§1) HEK293 cell line stably expressing GLP-1R or GCGR was used for screening GLP-1R and GCGR agonist.
(§2) Preparation of test sample: each compound was prepared into 100 μM stock solution, and then gradually diluted to working concentrations of 1 μM, 100 nM, 10 nM, 1 nM, 10^−1 nM, 10^−2 nM, 10^−3 nM, and H2O.
(§3) 1) Each compound to be tested was mixed with a serum-free medium (containing 0.1% BSA and 0.5 mM IBMX) to obtain a solution at a concentration 2 times the working concentration.
(§4) 2) The cells were digested, suspended in a serum-free medium (containing 0.5 mM IBMX), counted, and placed in a 384-well plate at a density of 1,000 cells/5 μL/well, then 5 μL of the testing compound was added, and the plate was placed in dark for reaction for 30 min.
(§5) 3) After the reaction was completed, a substrate for detecting cAMP was added, and the plate was placed in dark for reaction at the room temperature for 60 min.
(§6) 4) After the reaction was completed, the plate was placed on the Envision2104 multifunctional microplate reader for detection, and the ratio of optical density (OD) values at 665 nm and 615 nm were read out.

For another experiment, the target named is T2, GCGR (Homo sapiens, UniProt P47871).
T2 construct: expressed in transfected cells
T2 sequence (P47871 26-477, species assumed): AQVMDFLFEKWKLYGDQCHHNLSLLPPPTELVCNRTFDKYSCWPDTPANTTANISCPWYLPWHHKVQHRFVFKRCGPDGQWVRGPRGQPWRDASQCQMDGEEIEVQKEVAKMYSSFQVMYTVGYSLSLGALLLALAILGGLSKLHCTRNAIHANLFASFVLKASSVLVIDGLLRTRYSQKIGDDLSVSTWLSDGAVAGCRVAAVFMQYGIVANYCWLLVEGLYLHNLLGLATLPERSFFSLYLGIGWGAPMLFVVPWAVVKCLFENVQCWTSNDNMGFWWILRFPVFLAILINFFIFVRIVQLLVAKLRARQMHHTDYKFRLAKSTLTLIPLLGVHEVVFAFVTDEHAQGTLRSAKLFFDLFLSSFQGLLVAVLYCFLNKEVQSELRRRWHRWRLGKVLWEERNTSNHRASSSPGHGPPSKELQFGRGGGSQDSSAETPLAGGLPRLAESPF
Description: GC receptor-mediated cAMP production in vitro. The conditions noted are these: HEK293 cell line stably expressing GCGR. It is filed as cell-based. How it is done: as §1, §2, §3, §4, §5, §6
Background: Cyclic AMP is a second messenger, typically raised through Gs and lowered through Gi signalling.

The values that follow come from patent publication US20230174608A1, “Polypeptide Derivative Having Dual Receptor Agonistic Action and Use Thereof” (TIANJIN INSTITUTE OF PHARMACEUTICAL RESEARCH CO., LTD., priority 2020, published 2023).

The structures appear in SMILES notation. *1 amine or outer side, *2 acyl side, *3 side chain or, on linkers, in order; H or OH if unused. Where a SMILES comes first, the peptide text is derived from it. Side-chain parts run from the residue outwards. [ ]: non-standard residue; d: D form. The star is where a group is joined. C18 diacid = O=C(O)CCCCCCCCCCCCCCCCC(=O)*; γGlu = O=C(O)[C@H](CCC(=O)[*:2])N[*:1]; Palmitoyl = CCCCCCCCCCCCCCCC(=O)*; AEEA = NCCOCCOCC(=O)O; Aib = CC(C)(N)C(=O)O

By EC50 is commonly meant the concentration needed to bring the measured effect to its halfway point. A low value points to an effect from little substance.

T1 sequence (P43220 24-463, species assumed): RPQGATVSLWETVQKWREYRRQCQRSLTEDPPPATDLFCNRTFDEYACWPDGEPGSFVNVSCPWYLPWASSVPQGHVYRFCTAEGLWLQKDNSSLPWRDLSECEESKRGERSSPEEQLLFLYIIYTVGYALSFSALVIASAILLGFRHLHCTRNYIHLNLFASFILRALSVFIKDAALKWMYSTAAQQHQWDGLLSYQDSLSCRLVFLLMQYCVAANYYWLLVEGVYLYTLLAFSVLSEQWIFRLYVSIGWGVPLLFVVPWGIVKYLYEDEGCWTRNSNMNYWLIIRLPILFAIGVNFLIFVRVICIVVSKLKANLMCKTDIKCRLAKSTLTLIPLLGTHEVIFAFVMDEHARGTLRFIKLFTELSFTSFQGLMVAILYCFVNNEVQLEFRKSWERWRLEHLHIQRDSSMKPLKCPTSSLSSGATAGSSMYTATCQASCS

For the compound `CCCCCCCCCCCCCCCC(=O)N[C@@H](CCC(=O)NCCCC[C@H](NC(=O)[C@H](C)NC(=O)[C@H](C)NC(=O)[C@H](CCCNC(=N)N)NC(=O)[C@H](CCC(=O)O)NC(=O)[C@H](CC(=O)O)NC(=O)[C@H](CC(C)C)NC(=O)[C@H](Cc1ccc(O)cc1)NC(=O)[C@H](CCCCN)NC(=O)[C@H](CO)NC(=O)[C@H](Cc1ccc(O)cc1)NC(=O)[C@H](CC(=O)O)NC(=O)[C@H](CO)NC(=O)[C@@H](NC(=O)[C@H](Cc1ccccc1)NC(=O)[C@@H](NC(=O)CNC(=O)[C@H](CCC(N)=O)NC(=O)[C@H](CO)NC(=O)[C@@H](N)Cc1c[nH]cn1)[C@@H](C)O)[C@@H](C)O)C(=O)N[C@@H](CCC(=O)O)C(=O)N[C@@H](Cc1ccccc1)C(=O)N[C@H](C(=O)N[C@@H](C)C(=O)N[C@@H](Cc1c[nH]c2ccccc12)C(=O)N[C@@H](CC(C)C)C(=O)N[C@@H](CCC(=O)O)C(=O)N[C@@H](C)C(=O)NCC(=O)NCC(N)=O)[C@@H](C)CC)C(=O)O` [dgc001] (HELM PEPTIDE1{H.S.Q.G.T.F.T.S.D.Y.S.K.Y.L.D.E.R.A.A.K.E.F.I.A.W.L.E.A.G.G.[am]}|PEPTIDE2{[CCCCCCCCCCCCCCCC(=O)[*:2]].[gGlu]}$PEPTIDE1,PEPTIDE2,20:R3-2:R2$$$V2.0; N-terminus assumed), the values for the EC50 at GLP-1R and at GCGR were 1.13 nM and 0.806 nM, respectively.

Consider `CC[C@H](C)[C@H](NC(=O)[C@H](Cc1ccccc1)NC(=O)[C@H](CCC(=O)O)NC(=O)[C@H](CCCCNC(=O)COCCOCCNC(=O)COCCOCCNC(=O)CC[C@H](NC(=O)CCCCCCCCCCCCCCCCC(=O)O)C(=O)O)NC(=O)[C@H](C)NC(=O)[C@H](C)NC(=O)[C@H](CCCNC(=N)N)NC(=O)[C@H](CCC(=O)O)NC(=O)[C@H](CCC(=O)O)NC(=O)[C@H](CC(C)C)NC(=O)[C@H](Cc1ccc(O)cc1)NC(=O)[C@H](CCCCN)NC(=O)[C@H](CO)NC(=O)[C@H](Cc1ccc(O)cc1)NC(=O)[C@H](CC(=O)O)NC(=O)[C@H](CO)NC(=O)[C@@H](NC(=O)[C@H](Cc1ccccc1)NC(=O)[C@@H](NC(=O)CNC(=O)[C@H](CCC(N)=O)NC(=O)C(C)(C)NC(=O)[C@@H](N)Cc1c[nH]cn1)[C@@H](C)O)[C@@H](C)O)C(=O)N[C@@H](C)C(=O)N[C@@H](Cc1c[nH]c2ccccc12)C(=O)N[C@@H](CC(C)C)C(=O)N[C@@H](CCC(=O)O)C(=O)N[C@@H](C)C(=O)NCC(=O)NCC(N)=O` [dgc006] (H-H[Aib]QGTFTSDYSKYLEERAAK([AEEA-AEEA-γGlu-C18 diacid])EFIAWLEAGG-NH2; N-terminus assumed), for which the EC50 at GLP-1R came to 0.472 nM; on GCGR, 6.41 nM.

As for `CCCCCCCCCCCCCCCC(=O)N[C@@H](CCC(=O)NCCCC[C@H](NC(=O)[C@H](C)NC(=O)[C@H](C)NC(=O)[C@H](CCCNC(=N)N)NC(=O)[C@H](CCC(=O)O)NC(=O)[C@H](CC(=O)O)NC(=O)[C@H](CC(C)C)NC(=O)[C@H](Cc1ccc(O)cc1)NC(=O)[C@H](CCCCN)NC(=O)[C@H](CO)NC(=O)[C@H](Cc1ccc(O)cc1)NC(=O)[C@H](CC(=O)O)NC(=O)[C@H](CO)NC(=O)[C@@H](NC(=O)[C@H](Cc1ccccc1)NC(=O)[C@@H](NC(=O)CNC(=O)[C@H](CCC(N)=O)NC(=O)C(C)(C)NC(=O)[C@@H](N)Cc1c[nH]cn1)[C@@H](C)O)[C@@H](C)O)C(=O)N[C@@H](CCC(=O)O)C(=O)N[C@@H](Cc1ccccc1)C(=O)N[C@H](C(=O)N[C@@H](C)C(=O)N[C@@H](Cc1c[nH]c2ccccc12)C(=O)N[C@@H](CC(C)C)C(=O)N[C@@H](CCC(=O)O)C(=O)N[C@@H](CO)C(=O)NCC(=O)NCC(N)=O)[C@@H](C)CC)C(=O)O` [dgc007] (HELM PEPTIDE1{H.[Aib].Q.G.T.F.T.S.D.Y.S.K.Y.L.D.E.R.A.A.K.E.F.I.A.W.L.E.S.G.G.[am]}|PEPTIDE2{[CCCCCCCCCCCCCCCC(=O)[*:2]].[gGlu]}$PEPTIDE1,PEPTIDE2,20:R3-2:R2$$$V2.0; N-terminus assumed), the 50% effective concentration (EC50) at GLP-1R came out at 0.28 nM; on GCGR, 0.971 nM.

Take `CCCCCCCCCCCCCCCC(=O)N[C@@H](CCC(=O)NCCOCCOCC(=O)NCCOCCOCC(=O)NCCCC[C@H](NC(=O)[C@H](C)NC(=O)[C@H](C)NC(=O)[C@H](CCCNC(=N)N)NC(=O)[C@H](CCC(=O)O)NC(=O)[C@H](CCC(=O)O)NC(=O)[C@H](CC(C)C)NC(=O)[C@H](Cc1ccc(O)cc1)NC(=O)[C@H](CCCCN)NC(=O)[C@H](CO)NC(=O)[C@H](Cc1ccc(O)cc1)NC(=O)[C@H](CC(=O)O)NC(=O)[C@H](CO)NC(=O)[C@@H](NC(=O)[C@H](Cc1ccccc1)NC(=O)[C@@H](NC(=O)CNC(=O)[C@H](CCC(N)=O)NC(=O)C(C)(C)NC(=O)[C@@H](N)Cc1c[nH]cn1)[C@@H](C)O)[C@@H](C)O)C(=O)N[C@@H](CCC(=O)O)C(=O)N[C@@H](Cc1ccccc1)C(=O)N[C@H](C(=O)N[C@@H](C)C(=O)N[C@@H](Cc1c[nH]c2ccccc12)C(=O)N[C@@H](CC(C)C)C(=O)N[C@@H](CCC(=O)O)C(=O)N[C@@H](CO)C(=O)NCC(=O)NCC(N)=O)[C@@H](C)CC)C(=O)O` [dgc009] (H-H[Aib]QGTFTSDYSKYLEERAAK([AEEA-AEEA-γGlu-Palmitoyl])EFIAWLESGG-NH2; N-terminus assumed): the concentration giving a half-maximal response (EC50) at GLP-1R worked out at 0.092 nM; at GCGR it was 8.22 nM.

`CCCCCCCCCCCCCCCC(=O)N[C@@H](CCC(=O)NCCOCCOCC(=O)NCCOCCOCC(=O)NCCCC[C@H](NC(=O)[C@H](C)NC(=O)[C@H](C)NC(=O)[C@H](CCCNC(=N)N)NC(=O)[C@H](CCC(=O)O)NC(=O)[C@H](CCC(=O)O)NC(=O)[C@H](CC(C)C)NC(=O)[C@H](Cc1ccc(O)cc1)NC(=O)[C@H](CCCCN)NC(=O)[C@H](CO)NC(=O)[C@H](Cc1ccc(O)cc1)NC(=O)[C@H](CC(=O)O)NC(=O)[C@H](CO)NC(=O)[C@@H](NC(=O)[C@H](Cc1ccccc1)NC(=O)[C@@H](NC(=O)CNC(=O)[C@H](CCC(N)=O)NC(=O)C(C)(C)NC(=O)[C@@H](N)Cc1c[nH]cn1)[C@@H](C)O)[C@@H](C)O)C(=O)N[C@@H](CCC(=O)O)C(=O)N[C@@H](Cc1ccccc1)C(=O)N[C@H](C(=O)N[C@@H](C)C(=O)N[C@@H](Cc1c[nH]c2ccccc12)C(=O)N[C@@H](CC(C)C)C(=O)N[C@@H](CCC(=O)O)C(=O)N[C@@H](C)C(=O)NCC(=O)NCC(N)=O)[C@@H](C)CC)C(=O)O` [dgc011] (H-H[Aib]QGTFTSDYSKYLEERAAK([AEEA-AEEA-γGlu-Palmitoyl])EFIAWLEAGG-NH2; N-terminus assumed): the EC50 was 0.955 nM at GLP-1R and 4.13 nM on GCGR.

As to `CC(C)C[C@H](NC(=O)[C@H](Cc1c[nH]c2ccccc12)NC(=O)[C@H](C)NC(=O)[C@@H](NC(=O)[C@H](Cc1ccccc1)NC(=O)[C@H](CCC(=O)O)NC(=O)[C@H](CCCCNC(=O)COCCOCCNC(=O)COCCOCCNC(=O)CC[C@H](NC(=O)CCCCCCCCCCCCCCCCC(=O)O)C(=O)O)NC(=O)[C@H](C)NC(=O)[C@H](C)NC(=O)[C@H](CCCNC(=N)N)NC(=O)[C@H](CCC(=O)O)NC(=O)[C@H](CCC(=O)O)NC(=O)[C@H](CC(C)C)NC(=O)[C@H](Cc1ccc(O)cc1)NC(=O)[C@H](CCCCN)NC(=O)[C@H](CO)NC(=O)[C@H](Cc1ccc(O)cc1)NC(=O)[C@H](CC(=O)O)NC(=O)[C@H](CO)NC(=O)[C@@H](NC(=O)[C@H](Cc1ccccc1)NC(=O)[C@@H](NC(=O)CNC(=O)[C@H](CCC(N)=O)NC(=O)[C@@H](CO)NC(=O)[C@@H](N)Cc1c[nH]cn1)[C@@H](C)O)[C@@H](C)O)C(C)C)C(=O)N[C@@H](CCC(=O)O)C(=O)NCC(=O)NCC(N)=O` [dgc012] (H-H[dS]QGTFTSDYSKYLEERAAK([AEEA-AEEA-γGlu-C18 diacid])EFVAWLEGG-NH2; N-terminus assumed), the EC50 at GLP-1R was determined as 0.044 nM; at GCGR, 2.17 nM.

With `CCCCCCCCCCCCCCCC(=O)N[C@@H](CCC(=O)NCCCC[C@H](NC(=O)[C@H](C)NC(=O)[C@H](C)NC(=O)[C@H](CCCNC(=N)N)NC(=O)[C@H](CCC(=O)O)NC(=O)[C@H](CC(=O)O)NC(=O)[C@H](CC(C)C)NC(=O)[C@H](Cc1ccc(O)cc1)NC(=O)[C@H](CCCCN)NC(=O)[C@H](CO)NC(=O)[C@H](Cc1ccc(O)cc1)NC(=O)[C@H](CC(=O)O)NC(=O)[C@H](CO)NC(=O)[C@@H](NC(=O)[C@H](Cc1ccccc1)NC(=O)[C@@H](NC(=O)CNC(=O)[C@H](CCC(N)=O)NC(=O)C(C)(C)NC(=O)[C@@H](N)Cc1c[nH]cn1)[C@@H](C)O)[C@@H](C)O)C(=O)N[C@@H](CCC(=O)O)C(=O)N[C@@H](Cc1ccccc1)C(=O)N[C@H](C(=O)N[C@@H](C)C(=O)N[C@@H](Cc1c[nH]c2ccccc12)C(=O)N[C@@H](CC(C)C)C(=O)N[C@@H](CCC(=O)O)C(=O)NCC(=O)NCC(N)=O)[C@@H](C)CC)C(=O)O` [dgc014] (HELM PEPTIDE1{H.[Aib].Q.G.T.F.T.S.D.Y.S.K.Y.L.D.E.R.A.A.K.E.F.I.A.W.L.E.G.G.[am]}|PEPTIDE2{[CCCCCCCCCCCCCCCC(=O)[*:2]].[gGlu]}$PEPTIDE1,PEPTIDE2,20:R3-2:R2$$$V2.0; N-terminus assumed), the EC50 came to 0.516 nM at GLP-1R and 0.821 nM on GCGR.
